Data reported in patent US9062275B2, “Compositions rich in omega-3 fatty acids with a low content in phytanic acid” (NATAC PHARMA, S.L., priority 2009, dated 2015).

Key:
[1] = system: photoreceptors; assay: Paraquat-induced photoreceptor apoptosis in vitro; assay type: cell-based, Wistar albino rats
Protocol: Tyramide signal amplification (TSA)-FISH PerkinElmer, Boston, Mass., USA.); secondary antibodies, monoclonal antibodies to-Bax (sc-7480), Bcl-2 (sc-7382), rodopsine RET-P1 (sc-57433) (Santa Cruz Biotechnology, Inc.—USA), PhA, Docosahexaenoic acid, Paraquat Dichloride, (Sigma-Alldrich). Solvents and reactors had HPLC and analytic grade.
Purified cultures of neurons from Wistar albino rats were prepared according to Politi et al., (1966) and treated in a poli-ornithine medium as in Adler-R (1982). On the first day of culture, equal concentrations of DHA (9 mM) were added to neuron cultures, with 7 different concentrations of PhA ([…]), usually found in marine origin oils rich in DHA, and 2 controls without DHA, with or without Paraquat. On the third day of culture, Paraquat was added, incubating it for 24 h before fixing it for an hour with paraformaldehyde in a phosphate buffered saline (0.9% NaCl in 0.01 M NaH2PO4 [pH 7.4], following 15 minutes with Triton X-100 (0.1%). In the apoptosis, the expression of Bax and Bcl-2 was determined and quantified according to the method Rotstein-N P et al. (2003). For the cytochemical studies, 10 fields/samples were randomly quantified, where results represent the of 3 samples/plate mean for each concentration of DHA with PhA.

[2] = system: retinas from rats; assay: MNU-induced retinal apoptosis in vivo
Protocol: The same materials and immunohystochemical and quantification methods as in Experiment A were used. Instead of using Paraquat for inducing apoptosis, N-Nitroso-N-methylurea (MNU) (Sigma-Alldrich) was used. Instead of analysing cultures in vitro, as in Experiment A, retins from sacrificed Wistar albino rats were analysed. For that purpose, 8 rats S-D with 42 days of age were selected and fed for 4 weeks with a standard basal diet. Each animal was fed in a different way: one rat was on a standard on control diet, while for the other 7 rats this diet was modified with DHA at 15%, having different concentrations of PhA as in Experiment A: 0/4/20/100/500/2500/12500 μgPhA/g of oil. After these 4 weeks, they were injected a single intraperitoneal injection of MNU (75 mg/kg body weight). All rats were on the same diet for 6 days, being sacrificed at the 7th day, after having fast for 24 hours, when the extraction of retinas was carried out, following the fixation and immunohystochemical processes as in Experiment A. For the cytochemical studies, 10 fields/samples were randomly quantified, where results represent the 10 eye/sample mean.

[3] = system: leukotrienes, prostaglandin E2, prostaglandin F2; details: cited from earlier work
[4] = toxic at doses as low as; cited from earlier work
[5] = DHA oils <5 μg/g of PhA compared with larger concentrations

Compound | anti-apoptotic activity in photoreceptors ([1]; DHA 9 mM with 0 and 4 μg/g of PhA, compared with ≧20 and ≧100 μg/g) | inhibitory activity of apoptosis (FIG. 1) [1, 5] | oxidative stress produced (FIG. 1) [1, 5] | anti-apoptotic activity in photoreceptors ([1]; DHA with ≧20 μg/g and ≧100 μg/g of PhA) | activity to inhibit apoptosis of photoreceptors ([1]; PhA concentration 2500 μg/g) | apoptosis of photoreceptors ([1]; PhA concentrations higher than 2500 μg/g) | oxidative stress (Bcl-2/Bax index) ([1]; PhA ≦20 μg/g compared with ≧100 μg/g) | ratio Bcl-2/Bax ([2]; 20 μg/g of PhA versus rats fed with <5 μg/g) | neutralisation of the inhibitor effect of the apoptosis ([2]; PhA up to 12500 μgPhA/g of oil) | anti-apoptotic activity in photoreceptors ([2]; diet with DHA at 15%, PhA between 0 and 20 μg/g, MNU 75 mg/kg i.p.) | physiological activity as an inhibitor of apoptosis (FIG. 2) ([2]; oral consumption of DHA <5 μg/g of PhA) | anti-apoptotic activity and markers Bax and Bcl-2 with regards to DHA without PhA added ([2]; rats fed with DHA <5 μg/g) | inhibition of the synthesis of leukotrienes [3] | reduction of prostaglandin E2 [3] | reduction of prostaglandin F2 [3] | toxic dose [4]
CC/C=C\C/C=C\C/C=C\C/C=C\C/C=C\C/C=C\CCC(=O)O [DHA] | notably higher | greater inhibitory activity of apoptosis | less | significantly reduced | neutralised | apoptosis of photoreceptors is induced | significantly less oxidative stress | significantly lower | no neutralisation | greater anti-apoptotic activity | greater physiological activity | do not reveal alterations | 76% | 40% | 81% | 
CC(C)CCCC(C)CCCC(C)CCCC(C)CC(=O)O (stereo not shown) [PhA, phytanic acid] |  |  |  |  |  |  |  |  |  |  |  |  |  |  |  | 0.1 μmol/mg fat
